Reference: publication PMC12040169 (PLOS Biology, 2025)

Assay: in vitro
Settings: human, hela cells, % viability

Compound	viability at 28.5 h, 10 µM	viability at 28.5 h, 10 µM (bulk resorufin, single well)
O=C(O)c1cc(NC(=O)C2CC2)cc(C(=O)O)c1 [CBK268564]	94.3%	
CC(=O)Nc1ncc(Cl)s1 [CBK015564]	108%	
Nc1c(C(=O)NCc2ccco2)c2nc3ccccc3nc2n1C1CCCC1 [CBK269323]	106%	
O=c1[nH]ccn1CCNc1ccc(-c2cccc(Cl)c2Cl)cn1 [CBK037745]	93.1%	
O=C1NC(=S)NC(=O)C1=Cc1ccc(OCc2ccccc2)c(C(=O)O)c1 [CBK264159]		117%
CCCc1nc(SC)ncc1C(=O)Nc1nnc(SCC)s1 [CBK291198]	108%	
O=C(O)CCSc1nc2ccccc2nc1N1CCCC1 [CBK107862]	95.7%	
Cc1cccc(OCC(=O)Nc2sc3c(c2C(N)=O)CCC3)c1C [CBK269729]	94.8%	
c1ccc(CCN2CCC(Oc3nccnc3OCc3cccnc3)CC2)nc1 [CBK083180]	103%	
CC1CCN(C(=O)C2CC(=O)N(c3ccc(C(=O)O)cc3)C2)CC1 (centres unmarked) [CBK286568]	87.6%	
C=CCn1c2cc(C)sc2c2cnn(CC(=O)OC)c(=O)c21 [CBK284166]	89.3%	
COc1cc(/C=N/n2c(S)nnc2-c2cccnc2)ccc1OCc1ccccc1 [CBK265307]	110%	
CN1CCN(c2ccc(NS(=O)(=O)c3ccc(Cl)cc3)cc2)CC1 [CBK076932]	97.9%	
CC(=O)NCCc1nc2cc(NC(=O)c3cccc([N+](=O)[O-])c3)ccc2n1C [CBK268478]	90.7%	
C=CCC1(CC=C)CCN1C(=O)c1cc2c([nH]c1=O)CCCCC2 [CBK282524]	103%	
OCCOc1cccnc1OCC1CC1 [CBK001461]	89.4%	
Cc1ccc(S(=O)(=O)N2CCN(c3nc(NC(C)c4ccccc4)c4ccccc4n3)CC2)cc1 (centres unmarked) [CBK266448]	106%	
Cc1ccn2c(C3CCN(CCc4ccccc4)CC3)nc(-c3ccccc3)c2c1 [CBK035490]	89.4%	
CC(C(=O)Nc1cccc2[nH]ccc12)c1ccc(Cl)cc1 (centres unmarked) [CBK159647]	107%	
Cc1nc(NS(=O)(=O)Cc2ccccc2)sc1C(=O)O [CBK045552]	110%	
Cn1c(=O)[nH]c(=O)c2c1nc(SCCN1CCCCC1)n2CCCc1ccccc1 [CBK269469]	91.7%	
O=C1NC(=O)C(=NNc2ccc(S(=O)(=O)O)cc2)C(=O)N1 [CBK261439]		88.7%

Compound	viability at 28.5 h, 10 µM	viability at 28.5 h, 10 µM (bulk resorufin, single well)
C=CCNC(=O)C1(Cc2ccccc2-c2cccnc2)CCOCC1 [CBK285217]	109%	
CS(=O)(=O)c1ccc(-c2ccc(CN3CCN(C(=O)Cc4ccc(F)cc4F)CC3)cn2)cc1 [CBK162618T]	122%	
N#CC1CCCc2c1[nH]c1ccccc21 (centres unmarked) [CBK098397]	74.9%	
O=C(Cc1ccc(Cl)c(Cl)c1)N1CCN(c2ncccn2)CC1 [CBK144497]	98%	
COc1cc(CNc2nccnc2-c2ccco2)cc(OC)c1OC [CBK037320]	89.9%	
Cc1csc([C@H]2Cc3ccsc3[C@@H](C3CCOC3)N2)n1 (some centres unmarked) [CBK285089]	102%	
CCc1ccc(-c2cnccc2-n2ccnc2)cc1 [CBK177151]	93%	
O=C(Cc1c[nH]c2ccccc12)N1CCC2(CCCN(Cc3cc(=O)[nH]c(=O)[nH]3)C2)C1 (centres unmarked) [CBK132049]	102%	
O=C(c1cccnc1)N1CCC(c2cccc(Cc3ccc(C(F)(F)F)cc3)n2)CC1 [CBK286222]	95.4%	
O=C1N=C(NC2CCCC2)OC12CCN(Cc1ccccc1)CC2 [CBK115430]	103%	
CCN(Cc1ccc(C#N)cc1F)C(=O)C(NC(=O)OC)C(C)C (centres unmarked) [CBK306372]	86.2%	
C=CCN1C(=O)CC2(C1=O)C(=O)N(CCCN1C(=O)c3ccccc3C1=O)c1ccc(Cl)cc12 (centres unmarked) [CBK075443]	92.6%	
Cc1onc(-c2ccccc2)c1CNC(=O)CC1CC1 [CBK144072]	85.4%	
COc1ccc(OCCCCCN2CCC3(CC2)OCCc2c3[nH]c3ccccc23)cc1 [CBK113517T]	0%	
c1ccc(-c2nc3ccc(Cc4ccc5nc(-c6ccccn6)c(-c6ccccn6)nc5c4)cc3nc2-c2ccccn2)nc1 [CBK261975]	101%	
O=C(Nc1ccncc1)c1ccc(CNS(=O)(=O)c2cccc(C(F)(F)F)c2)cc1 [CBK267181]	88.5%	
CC1=C(c2ccc(OC(C)(C)CN3CCCC3)cc2)C(C)CCC1 (centres unmarked) [CBK012357C]	86.1%	
c1csc(-c2nccnc2NCCc2ccncc2)c1 [CBK036764]	108%	
O=C(NCCc1c[nH]c2ccc(Cl)cc12)c1cc(F)c(Cl)cc1F [CBK159763]	93.6%	
Cc1ccn(CCNC(=O)CSc2nccc3ccccc23)n1 [CBK282678]	104%	
Cc1nc(C(F)(F)F)ccc1C(=O)N1C=CC(C(F)(F)F)=NCC1 [CBK057187]	113%	
COC(=O)c1ccc(NS(=O)(=O)Cc2ccccc2)cc1 [CBK028699]	91.4%	

Compound	viability at 28.5 h, 10 µM	viability at 28.5 h, 10 µM (bulk resorufin, single well)
COc1cccc(C(=O)Nc2ccc(O)cc2C(=O)O)c1 [CBK268662]	104%	
COc1ccc(S(=O)(=O)N2CCN(C)CC2)cn1 [CBK269511]	85.9%	
CCCCN(C)c1c(CC)nc2ccc(C(=O)NCCN3CCCC3)cn12 [CBK145440]	96.2%	
Cc1cccn2c(=O)cc(CN3CCn4c(nnc4C4CC4)C3)nc12 [CBK305232]	102%	
CC1=NNC(=O)C1Cc1c(Cl)cccc1Cl (centres unmarked) [CBK067754]	109%	
COc1nc(-c2cccnc2)cn2ccnc12 [CBK093490]	82.1%	
CC(C)N(C(=O)CN1C(=O)N2CCN=C2c2ccccc21)C(C)C [CBK284005]	87%	
Nc1cc(=O)[nH]c(SCC(=O)N2CCCc3ccccc32)n1 [CBK304576]	94.1%	
CCc1nc(-c2ccc(N(C)C)nc2)nn1C [CBK307381]	106%	
Cc1ccc(S(=O)(=O)N(CC(=O)N2CCN(C)CC2)Cc2ccc(Cl)cc2Cl)cc1 [CBK265144]	100%	
CCc1ccc(OCc2nnc(SCC(=O)NCCCC(=O)O)n2CC(C)C)cc1 [CBK295321]	101%	
Cc1nc2c(-c3cccs3)c(C)nn2c(O)c1C [CBK283728]	99.9%	
Cc1nn(C(C)C)c(C)c1CN(CCCN(C)C)Cc1ccco1 [CBK282978]	86.8%	
O=C(c1ccco1)N1CCN(C2C3CCCC2CNC3)CC1 (centres unmarked) [CBK284992]	94.4%	
O=C(CCCc1nc(-c2ccccc2Cl)no1)Nc1cccnc1 [CBK269122]	91.6%	
COc1cccc(CCC(=O)Nc2cnc(-c3cccc(C(F)(F)F)c3)c(-c3cccnc3)n2)c1 [CBK036835]	90%	
O=C1N=C(NC2CCCCCC2)SC1CC(=O)N1CCCC1 (centres unmarked) [CBK063342]	95.3%	
O=C(O)Cc1sc(NCCN2CCOCC2)nc1-c1ccccc1 [CBK200113T]	88.7%	
O=C(CCCOc1ccc(Cl)cc1Cl)NO [CBK288436]	81.7%	
CSc1nc(NN2C(=O)c3ccccc3C2=O)c2c3c(sc2n1)COC(C)(C)C3 [CBK268758]	85.6%	
O=C1COc2ccc(S(=O)(=O)NCc3ccccc3)cc2N1 [CBK270156]	93.7%	
